Legend:
Experiment in all cases: Pre-emergence field trial in citrus, residual broadleaf weed control
Format in all cases: in vivo
[1] = test system: Wall-rocket (Diplotaxis erucoides, DIPER); conditions: trial SRES14 061 230 HE, Spain, diuron 900 and/or oxyfluorfen 90 g a.i./ha, rated 15 to 90 days after application
Procedure: (§1) Field trials were conducted in citrus crops using standard herbicide small plot research methodology. Plots varied from 12 square meters (m^2) to 30 m^2 (2×15) with 3 to 4 replicates per treatment. The citrus crops were grown using normal cultural practices for the respective areas for the trials, using normal planting, fertilization, watering, flooding and maintenance for pests to ensure good growth of the crop and the weeds.
(§2) All treatments in the field trials were applied with a knapsack sprayer using compressed air as propellant. The sprayer was equipped with a boom and flat fan nozzles, and calibrated to apply homogeneously a spray volume of 200 to 400 litres/hectare at constant pressure.
(§3) Diuron in combination with oxyfluorfen, in the form of a ready for use formulation, was compared to a diuron formulation and an oxyfluorfen formulation, at dose rates of respectively […]., 900 g a.i./ha and 90 g a.i./ha.
(§4) Treatments were rated at different intervals from treatment to evaluation, from 15 to 120 days after application as compared to the untreated control plants. Assessment were done recording the percentage of ground covered by weeds and the visual efficacy on a scale of 0 to 100 percent where 0 corresponds to no weed control and 100 corresponds to complete weed control.
(§5) Trials were conducted under field conditions in Spain. Trial sites were located in commercially grown European citrus crop. The citrus trees were grown using normal cultural practices for fertilization, seeding and maintenance to ensure good growth of the crop and the weeds. The trials were conducted using normal research methodology. Plots varied from 12 square meters (m^2) to 30 m^2 (2×15) with 3 to 4 replicates per treatment. All treatment results are an average of 3 to 4 replicates. The trials had naturally occurring populations of weeds. The weed spectrum included, but was not limited to black nightshade (Solanum nigrum; SOLNI), Sow thistle (Sonchus tenerrimus, SONTE), fleabane (Conyza bonariensis, ERIBO), DIPER, hairy fleabane (Conyza bonariensis, ERIBO), redroot pigweed (Amaranthus retroflexus, AMA).
(§6) Treatments consisted applications of diuron+oxyfluorfen, diuron solo or oxyfluorfen solo. […] Colby's equation was used to determine the herbicidal effects expected from the mixtures (Colby, S. R. Calculation of the synergistic and antagonistic response of herbicide combinations. Weeds 1967, 15, 20-22.). The following equation was used to calculate the expected activity of mixtures containing two active ingredients, A and B:
(§7) A=observed efficacy of active ingredient A at the s e concentration as used in the mixture. B=observed efficacy of active ingredient B at the s e concentration as used in the mixture.
(§8) Ob=Observed visual weed control, Ex=Expected weed control as defined by Colby Equation

[2] = test system: black nightshade (Solanum nigrum, SOLNI); conditions: trial SRES14 059 230 HE, Spain, diuron 900 and/or oxyfluorfen 90 g a.i./ha, rated 15 to 90 days after application
Procedure: as §1, §2, §3, §4, §5, §6, §7, §8

[3] = test system: fleabane (Conyza bonariensis, ERIBO); conditions: Spain, diuron 900 and/or oxyfluorfen 90 g a.i./ha, rated 15 to 90 days after application
Procedure: as §1, §2, §3, §4, §5, §6, §7, §8

[4] = test system: pigweed, redroot (Amaranthus retroflexus, AMARE); conditions: trial SRES14 061 230 HE, Spain, diuron 900 and/or oxyfluorfen 90 g a.i./ha, rated 15 to 90 days after application
Procedure: as §1, §2, §3, §4, §5, §6, §7, §8

[5] = test system: Sow thistle (Sonchus tenerrimus, SONTE); conditions: Spain, diuron 900 and/or oxyfluorfen 90 g a.i./ha, rated 15 to 90 days after application
Procedure: as §1, §2, §3, §4, §5, §6, §7, §8

SMILES	% Control DIPER Obs [1] [%]	% Control SOLNI Obs [2] [%]	% Control ERIBO Obs ([3]; trial SRES14 059 230 HE) [%]	% Control ERIBO Obs ([3]; trial SRES14 060 230 HE) [%]	% Control ERIBO Obs ([3]; trial SRES14 061 230 HE) [%]	% Control AMARE Obs [4] [%]	% Control SONTE Obs ([5]; trial SRES14 059 230 HE) [%]	% Control SONTE Obs ([5]; trial SRES14 060 230 HE) [%]
CCOc1cc(Oc2ccc(C(F)(F)F)cc2Cl)ccc1[N+](=O)[O-] [Oxyfluorfen, 2-chloro-1-(3-ethoxy-4-nitrophenoxy)-4-(trifluoromethyl)benzene]	20	47.5	35	47.5	43.8	45	28.8	10
CN(C)C(=O)Nc1ccc(Cl)c(Cl)c1 [Diuron, N′-(3,4-dichlorophenyl)-N,N-dimethylurea]	88.8	55	62.5	46.3	28.8	53.8	57.5	45
